Reference: article PMC2860105 (Science (New York, N.Y.), 2010)

Experiments:
[1] = system: Vps34; assay: in vitro inhibition of Vps34; assay type: biochemical
[2] = target: p110γ (Homo sapiens, UniProt P48736); assay: in vitro inhibition of class I PI3K p110γ; assay type: biochemical
Sequence of p110γ (P48736 whole entry, species assumed): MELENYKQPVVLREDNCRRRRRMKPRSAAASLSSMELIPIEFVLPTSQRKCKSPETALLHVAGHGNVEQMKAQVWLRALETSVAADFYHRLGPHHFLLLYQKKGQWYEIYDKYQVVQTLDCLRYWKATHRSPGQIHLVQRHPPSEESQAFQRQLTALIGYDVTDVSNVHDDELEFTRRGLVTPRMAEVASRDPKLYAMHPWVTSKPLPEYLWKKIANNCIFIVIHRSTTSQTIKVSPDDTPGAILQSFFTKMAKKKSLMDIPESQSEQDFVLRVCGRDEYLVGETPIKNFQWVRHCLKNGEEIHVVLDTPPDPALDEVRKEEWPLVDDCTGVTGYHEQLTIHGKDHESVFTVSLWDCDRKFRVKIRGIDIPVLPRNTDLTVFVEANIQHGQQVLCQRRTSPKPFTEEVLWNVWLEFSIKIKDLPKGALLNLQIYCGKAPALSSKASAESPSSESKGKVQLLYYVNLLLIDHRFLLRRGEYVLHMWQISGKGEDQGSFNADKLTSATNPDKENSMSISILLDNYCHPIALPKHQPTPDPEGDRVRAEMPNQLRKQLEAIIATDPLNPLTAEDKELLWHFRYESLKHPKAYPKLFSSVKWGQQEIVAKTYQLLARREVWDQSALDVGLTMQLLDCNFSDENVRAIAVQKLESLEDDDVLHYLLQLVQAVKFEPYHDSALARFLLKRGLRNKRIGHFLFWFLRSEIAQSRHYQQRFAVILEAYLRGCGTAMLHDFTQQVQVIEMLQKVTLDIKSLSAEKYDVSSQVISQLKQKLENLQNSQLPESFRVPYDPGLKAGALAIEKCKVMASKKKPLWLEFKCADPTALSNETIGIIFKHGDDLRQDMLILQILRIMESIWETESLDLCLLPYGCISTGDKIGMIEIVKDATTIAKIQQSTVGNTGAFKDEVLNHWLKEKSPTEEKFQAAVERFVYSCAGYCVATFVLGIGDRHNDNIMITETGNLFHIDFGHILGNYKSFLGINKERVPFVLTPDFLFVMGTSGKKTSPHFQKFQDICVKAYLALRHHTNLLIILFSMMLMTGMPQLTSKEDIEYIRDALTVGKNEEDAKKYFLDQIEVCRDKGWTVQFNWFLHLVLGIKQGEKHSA

Cn1cnc(N)c2ncnc1-2 [3-MA, 3-methyladenine, reference compound]
specificity for Vps34 versus other PI3Ks (in words) ([1]; in vitro assays, Fig. S8, Fig. 4G): preference for Vps34

CC(=O)Nc1nc(C)c(-c2ccc(Cl)c(S(=O)(=O)NCCO)c2)s1 [PIK-93, reference compound]
IC50 of PIK-93 relative to PIK-90 (in words) ([1]; Fig. S8): lower IC50

COc1ccc(-c2sc(NC(C)=O)nc2C)cc1S(=O)(=O)NCCO [PT21]
increase in IC50 for PI3Kγ (p110γ) compared to PIK93 ([2]; ratio of IC50 values vs PIK93): > 10 fold | IC50 ([2]; read-out: IC50 for the most potently inhibited Class I PI3K (p110γ), in vitro, Fig. S9): 61 nM | change in IC50 relative to PIK-93 (in words) ([1]; analogues of PIK-93, Fig. S9): little change in IC50 | IC50 ([1]; read-out: IC50 for Vps34, in vitro, Fig. S9): 88 nM
